In patent US6107333A (priority 1999, dated 2000):
Entries after “also recorded” stand apart in the source; their conditions may differ. Where two headings read alike, the source gives them in different places.

Key:
[1] = Solubility of paclitaxel in various solvents (HPLC); assay type: physicochemical
Procedure: A known amount of the drug, as a powder (two different aliquots of purified drug were obtained from Xechem Inc. New Brunswick, N.J.), was equilibrated in the respective solvent at RT (22° C.) over 1 hour. An aliquot was then removed and diluted in MeOH prior to HPLC at predetermined times. […] Different solvent systems were evaluated relative to the above estimates of necessary solubility to arrive at a clinically relevant stable stock formulation. This stock formulation would then be diluted with a "final solvent" to yield a complete stable clinical working formulation of 1-5 mg/ml, that could be infused parenterally. The final solvent was selected from one of the commonly utilized parental infusion fluids, NS, 5% dextrose in water or a parenterally acceptable aqueous lipid emulsion (e.g., Intralipid), all of which are readily available and approved for parenteral administration.
An excess of paclitaxel as a powder was added to DMA, DMSO, PEG, and PG at RT. Each mixture was placed in a dark environment and checked visually for up to 1 hour for evidence of solubilization.

[2] = for Stability (in words) / Degradation over first 60 days (in words): 25 mg/ml; for Stability of use-formulation (in words): aqueous lipid emulsion as terminal solvent
Procedure: To study the physical and chemical stability of the various parenteral formulations, 3 sets of studies were performed: […]
The various formulations were analyzed by HPLC immediately after mixing, then hourly for 8 hours, and then at gradually increasing time intervals for more than 10 days, depending on the initial rate of degradation in the respective solvent system.
Different aliquots were stored at 4° C., 22° C., 40° C., and 60° C. […] Immediately after solubilization and at various intervals up to more than 50 days, aliquots from different samples were analyzed by HPLC.

erythrocytes = assay: Hemolysis studies in vitro; assay type: cell-based; details: drug concentrations up to and exceeding 50 μg/ml; 4 hours at 37° C.
Procedure: The procedure of Parthasarathy et al. was used to examine the hemolytic potential of a few selected preparations and the LD50 values of the most optimal formulation was constructed as described (Parthasarathy et al., 1994). Heparinized blood was mixed with an equal volume of Alsever's solution. […] These mixtures were then incubated for 4 hours at 37° C. At the end of the incubation, the cells were pelleted at 10,000×gin an Eppendorf micro-centrifuge and the release of hemoglobin in the supernatant (ie., hemolysis) was determined spectrophotometrically at 550 nm. Maximum lysis was measured against a reference solution of erythrocytes that had been completely lysed by hypotonic shock. The hemolytic potential of the "optimal" complete formulation was evaluated as described (Parthasarathy et al., 1994) and the data were plotted as the fraction of healthy cells versus 1n (total volume percent). Total volume percent was defined as the volume percent of the vehicle in the mixture after dilution with blood. This was done to simulate the dilution of the respective drug formulation in the blood stream after parenteral administration.

[3] = Paclitaxel plasma concentration after iv injection in rats; assay type: in vivo, male Sprague-Dawley rats; details: 3 mg/kg iv
Procedure: For the in vivo study, male Sprague-Dawley rats with a body weight of 250-300 g were used. They were bought from the Harlan-Sprague-Dawley local breeding facility in Houston, Tex. The animals were allowed a minimum of 3-4 days to accommodate to the change of environment after shipping to the MD Anderson Cancer Center. All animals were allowed free access to commercial feed and tap water prior to and during the pharmacological study. The dose of 3 mg/kg was determined as the highest dose that could be given to the rats as a slow iv injection of the Cremophor® EL based preparation without a lethal anaphylactoid reaction in the absence of pharmacological premedication.
This avoided the possible influence of induction of microsomal liver enzymes which could alter drug metabolism/elimination and influence (the later part of) the plasma concentration curve. For the same reason, all animals were unanesthesized and only physically restrained during the drug injection. The drug concentration of the injected use-formulation was confirmed by HPLC prior to use. […] The blood was centrifuged at 1,000×g for 10 min and the plasma was separated and stored at -80° C. until extracted and assayed by HPLC as described above.

[4] = test system: ovarian and mammary carcinomas; details: clinical testing; cited from earlier work

With `CC(=O)O[C@H]1C(=O)[C@@]2(C)[C@H]([C@H](OC(=O)c3ccccc3)[C@]3(O)C[C@H](OC(=O)[C@H](O)[C@@H](NC(=O)c4ccccc4)c4ccccc4)C(C)=C1C3(C)C)[C@]1(OC(C)=O)CO[C@@H]1C[C@@H]2O` [Paclitaxel] the solubility ([1]; 5% dextrose, solvent 5% dextrose, 60 min at room temperature, read-out: Solubility) was under 100 µg/mL, the “Solubility (in words)” value ([1]; PEG-400, PG, NS, Intralipid and 5% dextrose, RT) was “did not yield any significant concentrations of solubilized drug” and the solubility ([1]; dma, organic solvent or mixture, solvent DMA, RT, read-out: Solubility) was over 200000 µg/mL. For the same molecule, the solubility ([1]; dmso, organic solvent or mixture, solvent DMSO, RT, read-out: Solubility) was over 100000 µg/mL, the solubility ([1]; intralipid, solvent Intralipid, 60 min at room temperature, read-out: Solubility) was under 100 µg/mL and the “Solubility (in words)” value ([1]; most of the aqueous solvents) was “insoluble in most of the aqueous solvents”. For the same molecule, the solubility ([1]; normal saline, solvent normal saline, 60 min at room temperature, read-out: Solubility) was under 100 µg/mL, the solubility ([1]; peg, organic solvent or mixture, solvent PEG, 60 min at room temperature, read-out: Solubility) was under 100 µg/mL and the solubility ([1]; propylene glycol, organic solvent or mixture, solvent propylene glycol, 60 min at room temperature, read-out: Solubility) was under 100 µg/mL. The solubility ([1]; solvent DMA, RT) was over 100000 µg/mL, the “Time within which significant degradation took place” value [2] was 4 to 6 h and the “Time without discernible degradation” value [2] was “more than 4.5 months”. The “Stability (in words)” value ([2]; room temperature) was “stable at 25 mg/ml for several months at room temperature”, the “Concentration of stable solution” value ([2]; DMA with PEG added (stock solution)) was 25000 µg/mL and the “Degradation over first 60 days (in words)” value ([2]; DMA:PEG (1:3, v/v) stock, 4° C.) was “did not show any significant degradation”. For the same molecule, the “Stability (in words)” value ([2]; DMA:PEG (1:3, v/v) stock, 4° C., 4.5 months) was “overlapping with that recorded for the samples stored at RT”, the “Degradation over first 60 days (in words)” value ([2]; DMA:PEG (1:3, v/v) stock, 40° C.) was “did not show any significant degradation” and the “Degradation over first 60 days (in words)” value ([2]; DMA:PEG (1:3, v/v) stock, RT) was “did not show any significant degradation”. The “Stability of use-formulation (in words)” value ([2]; 1 mg/ml, 4° C.) was “stable at 1 mg/ml and at 5 mg/ml for over one week”, the “Stability of use-formulation (in words)” value ([2]; 1 mg/ml, RT) was “stable at 1 mg/ml and at 5 mg/ml for over one week” and the “Stability of use-formulation (in words)” value ([2]; 5 mg/ml, 4° C.) was “stable at 1 mg/ml and at 5 mg/ml for over one week”. For the same molecule, the “Stability of use-formulation (in words)” value ([2]; 5 mg/ml, RT) was “stable at 1 mg/ml and at 5 mg/ml for over one week”, the “Degradation on storage (in words)” value ([2]; in DMA, >100 mg/ml, RT) was “started degrading slowly after storage over night at RT” and the “Paclitaxel dependent lysis (in words)” value (erythrocytes) was “barely notable above background”. The “Paclitaxel plasma concentrations (in words)” value [3] was “clearly cytocidal concentrations of paclitaxel are maintained for many hours; also recorded: clearly reach, and for extended time, remain in the antineoplastic range” and the “Antitumor activity (in words)” value [4] was “impressive activity against ovarian and mammary carcinomas”.
